Measured values: PubChem BioAssay AID330 (DTP/NCI, 2004)
Where “and” joins values, the source holds several entries; their conditions need not be identical. Identical values can stand only once. Inconclusive results and toxic doses are left out. The calls were made as follows: active = survival T/C of 150% or more; inactive = T/C below 125% in these data.

System: P388 leukemia ip, CD2F1 mice, survival T/C
Assay: NCI In Vivo Anticancer Drug Screen. Data for tumor model P388 Leukemia (intraperitoneal) in CD2F1 (CDF1) mice
Conditions: endpoint: median survival time, higher = longer survival
How it was run: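 Mice carrying the transplanted tumor received test compound or vehicle. Survival was recorded in each group, and the value is the treated-group measurement divided by that of the vehicle-treated control group.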

[1] = dose: 100.0 mg/kg/injection, schedule: Q01DX001 (ip), vehicle: saline with Tween-80
[2] = dose: 100.0 mg/kg/injection, schedule: Q04DX003 (ip), vehicle: saline with Tween-80
[3] = dose: 200.0 mg/kg/injection, schedule: Q04DX003 (ip), vehicle: saline with Tween-80
[4] = dose: 400.0 mg/kg/injection, schedule: Q04DX003 (ip), vehicle: saline with Tween-80
[5] = dose: 25.0 mg/kg/injection, schedule: Q01DX009 (ip), vehicle: saline with Tween-80
[6] = dose: 50.0 mg/kg/injection, schedule: Q01DX009 (ip), vehicle: saline with Tween-80
[7] = dose: 100.0 mg/kg/injection, schedule: Q01DX009 (ip), vehicle: saline with Tween-80
[8] = dose: 200.0 mg/kg/injection, schedule: Q01DX009 (ip), vehicle: saline with Tween-80
[9] = dose: 50.0 mg/kg/injection, schedule: Q01DX009 (ip), vehicle: saline
[10] = dose: 100.0 mg/kg/injection, schedule: Q01DX009 (ip), vehicle: saline
[11] = dose: 200.0 mg/kg/injection, schedule: Q01DX009 (ip), vehicle: saline

Measured: T/C

CCC(C)C(N)C(=O)N1CCCC1C(=O)NC(C(=O)O)C(C)CC (centres undefined)
inactive: dose: 8.25 mg/kg/injection, schedule: Q01DX005 (ip), vehicle: saline 99 % of control | dose: 16.5 mg/kg/injection, schedule: Q01DX005 (ip), vehicle: saline 102 % of control | dose: 33.0 mg/kg/injection, schedule: Q01DX005 (ip), vehicle: saline 94 % of control | dose: 66.0 mg/kg/injection, schedule: Q01DX005 (ip), vehicle: saline 102 % of control

Cc1cc(C(N)=O)c[n+](C)c1
inactive: dose: 50.0 mg/kg/injection, schedule: Q01DX005 (ip), vehicle: saline 100 % of control | dose: 100.0 mg/kg/injection, schedule: Q01DX005 (ip), vehicle: saline 105 % of control | dose: 200.0 mg/kg/injection, schedule: Q01DX005 (ip), vehicle: saline 107 % of control

COC(=O)/C(C)=C/C1N=C1c1ccccc1 (centres undefined)
inactive: dose: 25.0 mg/kg/injection, schedule: Q01DX001 (ip), vehicle: saline with Tween-80 114 % of control | dose: 50.0 mg/kg/injection, schedule: Q01DX001 (ip), vehicle: saline with Tween-80 118 % of control | [1] 123 % of control

Cc1ccc2oc3c(=O)c4ccccc4c(=O)c=3oc2c1
inactive: [2] 90 % of control | [3] 89 % of control | [4] 90 % of control

CC1=CC(C)(C)NC(=S)N1c1cccc2ccccc12
inactive: [5] 116 % of control | [6] 103 % of control | [7] 110 % of control | [8] 113 % of control

c1ccc2c3ccc(c2c1)CCc1ccc(c2ccccc12)CC3
inactive: dose: 100.0 mg/kg/injection, schedule: Q04DX003 (ip), vehicle: other 96 % of control | dose: 200.0 mg/kg/injection, schedule: Q04DX003 (ip), vehicle: other 90 % of control

N#CCCN(N)S(=O)(=O)c1ccc(Br)cc1
inactive: dose: 50.0 mg/kg/injection, schedule: Q01DX005 (ip), vehicle: Klucel (hydroxypropylcellulose) (HPC) 102 % of control | dose: 100.0 mg/kg/injection, schedule: Q01DX005 (ip), vehicle: Klucel (hydroxypropylcellulose) (HPC) 96 % of control | dose: 200.0 mg/kg/injection, schedule: Q01DX005 (ip), vehicle: Klucel (hydroxypropylcellulose) (HPC) 115 % of control

CCCCCCC1(/C=C/c2ccc(Cl)c(Cl)c2)OCC(C)(C)CO1
inactive: [6] 100 % of control | [7] 89 % of control | [8] 90 % of control

COc1ccc(N=Nc2c(C)nn(C(=S)S)c2C)cc1
inactive: dose: 50.0 mg/kg/injection, schedule: Q01DX005 (ip), vehicle: saline with Tween-80 113 % of control | dose: 100.0 mg/kg/injection, schedule: Q01DX005 (ip), vehicle: saline with Tween-80 101 % of control | dose: 200.0 mg/kg/injection, schedule: Q01DX005 (ip), vehicle: saline with Tween-80 106 % of control

C=C1C(=O)OCC1C(=O)OCC (centres undefined)
inactive: [2] 103 % of control | [3] 107 % of control | [4] 98 % of control

COc1cc2c(=O)n3c4c(cccc4c2cc1OC)CC3
inactive: dose: 25.0 mg/kg/injection, schedule: Q01DX009 (ip), vehicle: other 98 % of control | dose: 50.0 mg/kg/injection, schedule: Q01DX009 (ip), vehicle: other 91 % of control | dose: 100.0 mg/kg/injection, schedule: Q01DX009 (ip), vehicle: other 91 % of control | dose: 200.0 mg/kg/injection, schedule: Q01DX009 (ip), vehicle: other 89 % of control | dose: 400.0 mg/kg/injection, schedule: Q01DX009 (ip), vehicle: other 96 % of control

COC1=CC(=O)C(OC)=C(c2c[nH]c3ccccc23)C1=O
inactive: dose: 60.0 mg/kg/injection, schedule: Q01DX005 (ip), vehicle: saline with Tween-80 95 % of control | dose: 120.0 mg/kg/injection, schedule: Q01DX005 (ip), vehicle: saline with Tween-80 87 % of control | dose: 240.0 mg/kg/injection, schedule: Q01DX005 (ip), vehicle: saline with Tween-80 97 % of control

C/C=C/COc1ccccc1C=O
inactive: [9] 99 % of control | [10] 106 % of control | [11] 100 % of control

O=C(/C=C/C(=O)OCC(Cl)(Cl)Cl)OCC(Cl)(Cl)Cl
inactive: [7] 100 % of control | [8] 114 % of control | dose: 400.0 mg/kg/injection, schedule: Q01DX009 (ip), vehicle: saline with Tween-80 106 % of control

Cc1ccc(C(=Nc2ccccc2)c2ccccc2C)cc1
inactive: dose: 50.0 mg/kg/injection, schedule: Q04DX002 (ip), vehicle: saline with Tween-80 91 % of control and 95 % of control | dose: 100.0 mg/kg/injection, schedule: Q04DX002 (ip), vehicle: saline with Tween-80 104 % of control and 86 % of control | dose: 200.0 mg/kg/injection, schedule: Q04DX002 (ip), vehicle: saline with Tween-80 87 % of control and 93 % of control | dose: 400.0 mg/kg/injection, schedule: Q04DX002 (ip), vehicle: saline with Tween-80 86 % of control and 95 % of control

CC1(CCl)Nc2ccccc2C(=O)N1c1ccc(F)cc1 (centres undefined)
inactive: [6] 103 % of control | [7] 95 % of control | [8] 95 % of control

O=C1CCSC(=S)N1c1ccc(N=Nc2ccccc2)cc1
inactive: [9] 105 % of control | [10] 110 % of control | [11] 110 % of control

Cc1ccc(S(=O)(=O)NC(=O)NC(C)Cc2ccccc2)cc1 (centres undefined)
inactive: dose: 12.5 mg/kg/injection, schedule: Q01DX009 (ip), vehicle: saline with Tween-80 102 % of control | [5] 100 % of control | [6] 101 % of control and 105 % of control | [8] 98 % of control

COc1ccc(/C(=C(\c2ccccc2)[N+](=O)[O-])c2ccc(OCCN3CCCC3)cc2)cc1
inactive: [5] 104 % of control | [6] 100 % of control

CC1=C(Cl)CC(/C(C)=C/Cl)OC1(O)CBr (centres undefined)
inactive: dose: 0.1 mg/kg/injection, schedule: Q01DX009 (ip), vehicle: Klucel (hydroxypropylcellulose) (HPC) 100 % of control | dose: 0.2 mg/kg/injection, schedule: Q01DX009 (ip), vehicle: Klucel (hydroxypropylcellulose) (HPC) 100 % of control | dose: 0.38 mg/kg/injection, schedule: Q01DX009 (ip), vehicle: Klucel (hydroxypropylcellulose) (HPC) 95 % of control | dose: 0.4 mg/kg/injection, schedule: Q01DX009 (ip), vehicle: Klucel (hydroxypropylcellulose) (HPC) 97 % of control

COc1ccc(C2N(C)CCCN2C)c(OC)c1
inactive: dose: 6.25 mg/kg/injection, schedule: Q01DX009 (ip), vehicle: saline sonified 100 % of control | dose: 12.5 mg/kg/injection, schedule: Q01DX009 (ip), vehicle: saline sonified 105 % of control | dose: 25.0 mg/kg/injection, schedule: Q01DX009 (ip), vehicle: saline sonified 100 % of control

CC(C)(C#N)Nc1ccccc1
inactive: dose: 3.13 mg/kg/injection, schedule: Q04DX003 (ip), vehicle: saline with Tween-80 87 % of control | dose: 6.25 mg/kg/injection, schedule: Q04DX003 (ip), vehicle: saline with Tween-80 100 % of control and 95 % of control | dose: 12.5 mg/kg/injection, schedule: Q04DX003 (ip), vehicle: saline with Tween-80 100 % of control | dose: 25.0 mg/kg/injection, schedule: Q04DX003 (ip), vehicle: saline with Tween-80 100 % of control

CN(C)CCSc1n[nH]c(=O)[nH]c1=O
inactive: dose: 25.0 mg/kg/injection, schedule: Q01DX005 (ip), vehicle: distilled water + alcohol 101 % of control | dose: 50.0 mg/kg/injection, schedule: Q01DX005 (ip), vehicle: distilled water + alcohol 95 % of control | dose: 100.0 mg/kg/injection, schedule: Q01DX005 (ip), vehicle: distilled water + alcohol 100 % of control | dose: 200.0 mg/kg/injection, schedule: Q01DX005 (ip), vehicle: distilled water + alcohol 96 % of control

COC(=O)C(Cl)(Cl)C1(c2ccccc2)OCC(C)(C)N1C(=O)C(Cl)Cl (centres undefined)
inactive: [1] 100 % of control | dose: 200.0 mg/kg/injection, schedule: Q01DX001 (ip), vehicle: saline with Tween-80 100 % of control | dose: 400.0 mg/kg/injection, schedule: Q01DX001 (ip), vehicle: saline with Tween-80 100 % of control
